Patent US20210323977A1, “PYRROLIDINYL AMIDE COMPOUNDS FOR THE TREATMENT OF AUTOIMMUNE DISEASE” (Hoffmann-La Roche Inc., priority 2018, published 2021)

Each compound was assayed against T1, human TLR7 (Homo sapiens, UniProt Q9NYK1) (assay: HEK293-Blue-hTLR-7 cells assay). Conditions: HEK293-Blue-hTLR7 cells, SEAP reporter, R848 stimulation, 20 hrs.
T1 sequence (Q9NYK1 27-1049): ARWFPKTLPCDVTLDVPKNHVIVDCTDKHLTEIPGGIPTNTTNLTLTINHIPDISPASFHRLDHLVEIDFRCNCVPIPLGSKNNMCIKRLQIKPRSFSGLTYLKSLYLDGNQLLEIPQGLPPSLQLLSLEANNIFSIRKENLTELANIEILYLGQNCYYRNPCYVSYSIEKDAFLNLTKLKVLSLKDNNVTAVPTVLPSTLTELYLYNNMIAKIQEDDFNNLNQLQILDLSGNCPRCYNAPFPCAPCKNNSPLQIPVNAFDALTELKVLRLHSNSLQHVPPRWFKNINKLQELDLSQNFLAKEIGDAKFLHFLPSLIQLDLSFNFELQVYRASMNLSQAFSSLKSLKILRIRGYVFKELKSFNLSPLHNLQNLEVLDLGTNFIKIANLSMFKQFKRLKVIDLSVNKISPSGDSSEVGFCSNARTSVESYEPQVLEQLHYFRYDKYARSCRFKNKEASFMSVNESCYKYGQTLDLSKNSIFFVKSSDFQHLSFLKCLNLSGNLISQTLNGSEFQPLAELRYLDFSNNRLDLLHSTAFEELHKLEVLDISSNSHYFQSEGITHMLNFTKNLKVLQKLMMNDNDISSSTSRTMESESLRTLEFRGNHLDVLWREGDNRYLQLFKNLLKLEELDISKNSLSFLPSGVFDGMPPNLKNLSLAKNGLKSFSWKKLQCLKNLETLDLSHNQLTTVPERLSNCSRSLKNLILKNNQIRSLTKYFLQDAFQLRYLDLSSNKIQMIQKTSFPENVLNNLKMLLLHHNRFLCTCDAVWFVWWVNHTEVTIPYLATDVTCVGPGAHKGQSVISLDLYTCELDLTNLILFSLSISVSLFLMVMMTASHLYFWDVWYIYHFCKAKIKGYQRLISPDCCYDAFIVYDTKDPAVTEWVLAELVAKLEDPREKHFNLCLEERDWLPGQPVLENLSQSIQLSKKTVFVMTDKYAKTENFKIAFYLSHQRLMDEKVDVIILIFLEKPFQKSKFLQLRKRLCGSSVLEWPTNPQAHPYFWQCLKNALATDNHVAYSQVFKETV
Assay type: cell-based
Source text: HEK293-Blue-hTLR-7 Cells Assay:
A stable HEK293-Blue-hTLR-7 cell line was purchased from InvivoGen (Cat. #: hkb-htlr7, San Diego, Calif., USA). These cells were originally designed for studying the stimulation of human TLR7 by monitoring the activation of NF-κB. A SEAP (secreted embryonic alkaline phosphatase) reporter gene was placed under the control of the IFN-β minimal promoter fused to five NF-κB and AP-1-binding sites. The SEAP was induced by activating NF-κB and AP-1 via stimulating HEK-Blue hTLR7 cells with TLR7 ligands. Therefore the reporter expression was declined by TLR7 antagonist under the stimulation of a ligand, such as R848 (Resiquimod), for incubation of 20 hrs. The cell culture supernatant SEAP reporter activity was determined using QUANTI-Blue™ kit (Cat. #: rep-qb1, Invivogen, San Diego, Ca, USA) at a wavelength of 640 nm, a detection medium that turns purple or blue in the presence of alkaline phosphatase.
HEK293-Blue-hTLR7 cells were incubated at a density of 250,000˜450,000 cells/mL in a volume of 170 μL in a 96-well plate in Dulbecco's Modified Eagle's medium (DMEM) containing 4.5 g/L glucose, 50 U/mL penicillin, […], […], 2 mM L-glutamine, 10% (v/v) heat-inactivated fetal bovine serum with addition of 20 sL test compound in a serial dilution in the presence of final DMSO at 1% and 10 μL of 20 uM R848 in above DMEM, perform incubation under 37° C. in a CO2 incubator for 20 hrs. Then 20 μL of the supernatant from each well was incubated with 180 sL Quanti-blue substrate solution at 37° C. for 2 hrs and the absorbance was read at 620-655 nm using a spectrophotometer. The signalling pathway that TLR7 activation leads to downstream NF-κB activation has been widely accepted, and therefore similar reporter assay was modified for evaluating TLR7 antagonist.

IC50 [nM]	Compound
33	C[C@@H]1CN(c2ccc(C(F)(F)F)c3nccnc23)C[C@H]1C(=O)NC1CCN(C)CC1 [Example 25, (3S,4S)-4-Methyl-N-(1-methyl-4-piperidyl)-1-[8-(trifluoromethyl)quinoxalin-5-yl]pyrrolidine-3-carboxamide]
36	CN(C)CC1CC(NC(=O)C2CN(c3ccc(C(F)(F)F)c4nccnc34)CC23CC3)C1 (stereo not shown) [Example 26, N-[3-[(dimethylamino)methyl]cyclobutyl]-5-[8-(trifluoromethyl)quinoxalin-5-yl]-5-azaspiro[2.4]heptane-7-carboxamide]
41	NC1CC(CNC(=O)C2CN(c3ccc(C(F)(F)F)c4nccnc34)CC23CC3)C1 (stereo not shown) [Example 31, N-[(3-aminocyclobutyl)methyl]-5-[8-(trifluoromethyl)quinoxalin-5-yl]-5-azaspiro[2.4]heptane-7-carboxamide]
45	Cc1ccc(N2C[C@H](C(=O)NC3CCN(C)CC3)[C@@H](C)C2)c2nccnc12 [Example 33, (3R,4R)-4-Methyl-N-(1-methyl-4-piperidyl)-1-(8-methylquinoxalin-5-yl)pyrrolidine-3-carboxamide]
46	O=C(NC1CC2(CCNCC2)C1)C1CN(c2ccc(C(F)(F)F)c3nccnc23)CC12CC2 (stereo not shown) [Example 34, N-(7-azaspiro[3.5]nonan-2-yl)-5-[8-(trifluoromethyl)quinoxalin-5-yl]-5-azaspiro[2.4]heptane-7-carboxamide]
55	N#Cc1ccc(N2C[C@H](C(=O)NC3CCN(C4CCNCC4)CC3)[C@@H](C(F)(F)F)C2)c2nccnc12 [Example 35, (3R,4R)-1-(8-Cyanoquinoxalin-5-yl)-N-[1-(4-piperidyl)-4-piperidyl]-4-(trifluoromethyl)pyrrolidine-3-carboxamide]
57	N[C@@H]1C[C@H](NC(=O)C2CN(c3ccc(C(F)(F)F)c4nccnc34)CC23CC3)[C@@H]2C[C@@H]21 (stereo partly drawn) [Example 36, N-[(1R,2S,4R,5S)-4-amino-2-bicyclo[3.1.0]hexanyl]-5-[8-(trifluoromethyl)quinoxalin-5-yl]-5-azaspiro[2.4]heptane-7-carboxamide]
59	NC1CC(NC(=O)C2CN(c3ccc(C(F)(F)F)c4nccnc34)CC23CC3)C1 (stereo not shown) [Example 38, N-(3-Aminocyclobutyl)-5-[8-(trifluoromethyl)quinoxalin-5-yl]-5-azaspiro[2.4]heptane-7-carboxamide]
74	N[C@H]1CC[C@@H](NC(=O)C2CN(c3ccc(C(F)(F)F)c4nccnc34)CC23CC3)CC1 (stereo partly shown) [Example 39, N-(4-Aminocyclohexyl)-5-[8-(trifluoromethyl)quinoxalin-5-yl]-5-azaspiro[2.4]heptane-7-carboxamide]
84	C[C@H]1CN(c2ccc(C#N)n3nccc23)C[C@@H]1C(=O)NC1CCN(C)CC1 [Example 44, (3R,4R)-1-(7-cyanopyrazolo[1,5-a]pyridin-4-yl)-4-methyl-N-(1-methyl-4 piperidyl)pyrrolidine-3-carboxamide]

Second part, the compound before the results:

Compound	IC50 [nM]
O=C(NC1CC2COCC(C1)N2)C1CN(c2ccc(C(F)(F)F)c3nccnc23)CC12CC2 (stereo not shown) [Example 6, N-(3-oxa-9-azabicyclo[3.3.1]nonan-7-yl)-5-[8-(trifluoromethyl)quinoxalin-5-yl]-5-azaspiro[2.4]heptane-7-carboxamide]	9
O=C(NC1C2CCCC1CNC2)C1CN(c2ccc(C(F)(F)F)c3nccnc23)CC12CC2 (stereo not shown) [Example 8, N-(3-azabicyclo[3.3.1]nonan-9-yl)-5-[8-(trifluoromethyl)quinoxalin-5-yl]-5-azaspiro[2.4]heptane-7-carboxamide]	10
O=C(NC1CC2CCCC(C1)N2)C1CN(c2ccc(C(F)(F)F)c3nccnc23)CC12CC2 (stereo not shown) [Example 10, N-(9-azabicyclo[3.3.1]nonan-3-yl)-5-[8-(trifluoromethyl)quinoxalin-5-yl]-5-azaspiro[2.4]heptane-7-carboxamide]	12
CN1CCC(NC(=O)C2CN(c3ccc(C(F)(F)F)c4nccnc34)CC23CC3)CC1 (stereo not shown) [Example 11, N-(1-methyl-4-piperidyl)-5-[8-(trifluoromethyl)quinoxalin-5-yl]-5-azaspiro[2.4]heptane-7-carboxamide]	13
O=C(NC1C2CCC1CNC2)C1CN(c2ccc(C(F)(F)F)c3nccnc23)CC12CC2 (stereo not shown) [Example 12, N-(3-azabicyclo[3.2.1]octan-8-yl)-5-[8-(trifluoromethyl)quinoxalin-5-yl]-5-azaspiro[2.4]heptane-7-carboxamide]	18
N#Cc1ccc(N2CC(C(=O)NCC3CNCCO3)C3(CC3)C2)c2nccnc12 (stereo not shown) [Example 13, 5-(8-Cyanoquinoxalin-5-yl)-N-(morpholin-2-ylmethyl)-5-azaspiro[2.4]heptane-7-carboxamide]	18
O=C(NC1CC2CNCC(C2)C1)C1CN(c2ccc(C(F)(F)F)c3nccnc23)CC12CC2 (stereo not shown) [Example 15, N-(3-azabicyclo[3.3.1]nonan-7-yl)-5-[8-(trifluoromethyl)quinoxalin-5-yl]-5-azaspiro[2.4]heptane-7-carboxamide]	21
C[C@H]1CN(c2ccc(C#N)c3ncccc23)C[C@@H]1C(=O)NC1CCN(C)CC1 [Example 16, (3R,4R)-1-(8-cyano-5-quinolyl)-4-methyl-N-(1-methyl-4-piperidyl)pyrrolidine-3-carboxamide]	22
CN1CCC(NC(=O)C2CN(c3ccc(C#N)c4ncccc34)CC2C(F)(F)F)CC1 (stereo not shown) [Example 18, 1-(8-Cyano-5-quinolyl)-N-(1-methyl-4-piperidyl)-4-(trifluoromethyl)pyrrolidine-3-carboxamide]	23
CN1CC(NC(=O)C2CN(c3ccc(C(F)(F)F)c4nccnc34)CC23CC3)C2(CC2)C1 (stereo not shown) [Example 20, N-(5-methyl-5-azaspiro[2.4]heptan-7-yl)-5-[8-(trifluoromethyl)quinoxalin-5-yl]-5-azaspiro[2.4]heptane-7-carboxamide]	25
O=C(NC1CC2CNCC2C1)C1CN(c2ccc(C(F)(F)F)c3nccnc23)CC12CC2 (stereo not shown) [Example 21, N-(1,2,3,3a,4,5,6,6a-octahydrocyclopenta[c]pyrrol-5-yl)-5-[8-(trifluoromethyl)quinoxalin-5-yl]-5-azaspiro[2.4]heptane-7-carboxamide]	28
NC1CC2(C1)CC(NC(=O)C1CN(c3ccc(C(F)(F)F)c4nccnc34)CC13CC3)C2 (stereo not shown) [Example 22, N-(6-aminospiro[3.3]heptan-2-yl)-5-[8-(trifluoromethyl)quinoxalin-5-yl]-5-azaspiro[2.4]heptane-7-carboxamide]	28
O=C(NC1CC2CCC(C1)N2)C1CN(c2ccc(C(F)(F)F)c3nccnc23)CC12CC2 (stereo not shown) [Example 23, N-(8-azabicyclo[3.2.1]octan-3-yl)-5-[8-(trifluoromethyl)quinoxalin-5-yl]-5-azaspiro[2.4]heptane-7-carboxamide]	28
N[C@H]1CC[C@H](NC(=O)C2CN(c3ccc(C(F)(F)F)c4nccnc34)CC23CC3)CC1 (stereo partly shown) [Example 24, N-(4-aminocyclohexyl)-5-[8-(trifluoromethyl)quinoxalin-5-yl]-5-azaspiro[2.4]heptane-7-carboxamide]	29
C[C@H]1CN(c2ccc([N+](=O)[O-])c3ncccc23)C[C@@H]1C(=O)NC1CCN(C)CC1 [Example 27, (3R,4R)-4-Methyl-N-(1-methyl-4-piperidyl)-1-(8-nitro-5-quinolyl)pyrrolidine-3-carboxamide]	38
